Source: patent publication US20260048151A1, “HEMICYANINE PUSH-PULL DYES BASED ON CHROMENE ELECTRON DONORS” (UNIVERSITY OF CONNECTICUT, priority 2022, published 2026)

What was measured:
[1] = Voltage sensitivity on voltage-clamped hemispherical lipid bilayer; conditions: for Ex (excitation wavelength of optimal voltage sensitivity) / Voltage Sensitivity ΔF/F per 100 mV: long pass emission filter; for Voltage Sensitivity ΔF/F per 100 mV: magnitude at optimal Ex/Em
Source text: It is known that optimal voltage sensitivity can be obtained by measuring the compounds on a voltage-clamped hemispherical bilayer apparatus. The apparatus can include a patch-clamp amplifier, such as a HEKA EPC-8 patch-clamp amplifier. Measurements can be obtained by stepping the membrane potential between two different potentials for a set time lapse. such as, for example, −110 and −60 mV every 10 ms.
Testing VSDs in a voltage-clamped hemispherical lipid bilayer allows one to determine the sensitivity of the VSDs as a function of excitation wavelength. This system has a Teflon tube filled with KCl and is immersed in a KCl solution in a cuvette. A lipid bubble is blown at the tip of the tube and spontaneously forms a bilayer membrane. The VSD to be tested is introduced on one side of the bilayer, usually in the cuvette. Electrodes in the tube and in the cuvette allow the imposition of a voltage across the membrane and a tungsten lamp coupled to a monochromator allows excitation wavelength dependence of the fluorescence response to voltage steps to be determined. This screening approach has allows for the comparison of the efficacy of newly developed VSDs in a well-controlled, consistent manner and to also determine excitation and emission wavelengths with optimal.
Voltage sensitivities of 2a as a function of voltage is shown in FIG. 3A for excitation at 730 nm and 570 nm. The voltage response is linear over the range of −100 mV to +100 mV; 570 nm is slightly to the blue of the isosbestic point, accounting for the weak but inverted sensitivity at this wavelength. […] This opposite polarity at the blue and red edges underlies the ability to use electrochromic hemicyanine dyes for dual-wavelength ratio imaging. The precise location of the isosbestic point in the excitation wavelength depends on the emission filter used because the emission spectrum is also voltage dependent for hemicyanine dyes.
The magnitude and wavelengths of the optimal voltage sensitivities of all the VSDs on the voltage-clamped hemispherical bilayer are included in the third column of Table 1.

[2] = Absorption and emission spectra, fluorescence quantum efficiency in EtOH, PBS and lipid vesicles (MLV); format: physicochemical; conditions: for Fluorescence quantum efficiency (FQE): in lipid vesicle suspensions; for emission maximum: membrane-bound (MLV)
Protocol: FIGS. 2A-2C are plots showing absorption and emission spectra of 2a, in comparison with ElectroFluor630, in various solvent environments: MLV, EtOH, and PBS. Multilamellar lipid vesicle suspension (MLV) was prepared by sonicating soybean phosphatidylcholine in PBS buffer (2 mg/mL) to mimic the cell membrane environment. The emission spectra in ethanol and PBS buffer were scaled 10 and 20 times respectively relative to the emission spectra in MLV. Excitation wavelength is 580 nm for emission spectra.
All chemicals were purchased from commercial sources (Sigma Aldrich, Acros, TCI America, Combi-Blocks, and others) and used without further purification. Column chromatography was generally performed on COMBIFLASH NextGen 300 using normal phase silica columns except that for some final dye products amine silica columns were used. Thin layer chromatography (TLC) was carried out on EM 60 F-254 plastic TLC plates. NMR spectra were recorded on Varian 400 MHz, 500 MHz, and 800 MHz instruments at the UConn Heath Structural Biology Facility. All spectra are referenced internally to TMS or residual solvent signals. Electrospray ionization (ESI) high-resolution mass spectra (HRMS) were obtained on a QStar Elite (AB Sciex) at the Department of Chemistry, University of Connecticut. UV/Vis absorption spectra were recorded on a UV-Visible spectrophotometer (Shimadzu, UV-1601PC) and fluorescence emission spectra on a Horiba Fluorolog spectrofluorometer (Horiba, Inc., Edison, NJ). Fluorescence quantum yield for dyes was determined by a relative method using Rhodamine 6G (excited at 480 nm, FQY=0.95 in EtOH) or cresyl violet (excited at 580 nm, FQY=0.54 in MeOH) as the references.
Absorbance and the fluorescence properties of the new VSDs were determined. The absorption and emission spectra for 2a, together with ElectroFluor630, in aqueous buffer (PBS), ethanol, and when intercalated in the membrane of lipid vesicles are shown in FIGS. 2A-C. […] This is particularly advantageous for fluorescence imaging because background fluorescence from unbound dye is negligible. Another characteristic of the hemicyanine VSDs that is preserved by 2a in FIGS. 2A-C is the large Stokes shift between the excitation and emission maxima. 125 nm for the membrane-bound dye. This is also a benefit for fluorescence detection and imaging, as the fluorescence can be readily filtered from scattered exciting light. The broad wavelength window afforded by the spectra is also an important benefit for the design of experiments with multiple fluorescent sensors. For comparative purposes, certain VSDs are shown below.
As expected, the spectra are largely insensitive to alkyl substitution. Table 1 also includes data for ElectroFluor630 (aka Di-4-ANEQ (F) PTEA) for comparison. The absorption maxima of 2a in ethanol (EtOH), aqueous buffer (PBS) and when bound to lipid membranes (multilamellar vesicles, MLV) are red shifted by 77 nm, 63 nm and 63 nm, respectively, relative to ElectroFluor630, which is isostructural to 2a. […] The absorption and emission spectra of 2a, 2b, and 2c are all shifted to the red by 50-65 nm relative to ElectroFluor630.

[3] = Voltage sensitivity on voltage-clamped hemispherical lipid bilayer; conditions: 560 nm excitation
[4] = test system: in-vivo pig heart; conditions: translational in-vivo pig model (Lee, et al., 2019); cited from earlier work
[5] = Optimal excitation wavelengths of existing VSDs; format: physicochemical
[6] = test system: AtT20 cells; experiment: Voltage sensitivity in patch clamped tissue culture cells; format: cell-based
Source text: We were motivated by separate requests from a company, Tara Biosystems, and the academic lab of Dr. Jack Rogers (see letters of support), for cardiac applications requiring recording over the course of longer than a full day. This will require dyes with both improved persistence (i.e. long washout times) and photostability (to allow for recording over long periods without appreciable bleaching or phototoxicity). We addressed these requirements via synthesis of a fluorinated chromophore (to improve photostability) with lengthened alkyl chains (to improve the strength of membrane binding and therefore persistence); we are calling it ElectroFluor630p™ (630 for the optimal excitation wavelength and p for persistent). ElectroFluor630p™ is similar to ElectroFluor630™, except that the butyl chains have been replaced with pentyl chains. We characterized this new VSD on both our voltage clamped hemispherical bilayer and on AtT20 cells. […] In addition, we will follow-up on these measurements extending the excitation wavelengths to include 660 nm. This is expected to further increase sensitivity and is an important wavelength for commercialization since the Photoswitch Bolt system, which is being sold for high-throughput cardiac safety screening studies (see letter from Stephen Smith), uses 660 nm laser excitation.
Turning to Preliminary Results for Aim 2. we have already described our characterization of a new VSD in patch clamped tissue culture cells in FIG. 2.

[7] = in MLV (multilamellar lipid vesicles)

Row | SMILES | Ex (excitation wavelength of optimal voltage sensitivity) [1] [nm] | Voltage Sensitivity ΔF/F per 100 mV [1] [%] | absorption maximum ([2]; in EtOH) [nm] | absorption maximum [2, 7] [nm] | absorption maximum ([2]; in PBS) [nm] | Fluorescence quantum efficiency (FQE) [2] | emission maximum [2] [nm] | other results
1 | CCCCN(CCCC)c1ccc2c(c1)OCC(/C=C/c1cc[n+](CCCS(=O)(=O)[O-])cc1F)=C2 [1a] | 660 | 12 | 577 | 540 | 546 | 0.31 | 673 | shift to the red of results relative to the FIG. 1 dye [1]: ~30 nm
2 | CCCCCN(CCCCC)c1ccc2c(c1)OCC(/C=C/c1cc[n+](CCCS(=O)(=O)[O-])cc1F)=C2 [1b] | 640 | 8 | 580 | 540 | 552 | 0.25 | 677 | –
3 | CCCCCCN(CCCCCC)c1ccc2c(c1)OCC(/C=C/c1cc[n+](CCCS(=O)(=O)[O-])cc1F)=C2 [1c] | 630 | 11 | 579 | 534 | 515 | 0.22 | 675 | –
4 | CCCCN(CCCC)c1ccc2c(c1)OCC(/C=C/c1c(F)c[n+](CCC[N+](CC)(CC)CC)c3ccccc13)=C2.[Br-].[Br-] [2a] | 730 | 17 | 701 | 614 | 633 | 0.10 | 739 | ΔF/F/100 mV ([1]; 730 nm excitation): −17%; excitation wavelength of voltage sensitivity higher than any previous VSDs ([1]; at 730 nm): ~100 nm; voltage response of fluorescence ([1]; range −100 mV to +100 mV, excitation 730 nm and 570 nm): linear; ΔF/F/100 mV [3]: +3%; red shift of absorption maximum relative to ElectroFluor630 ([2]; bound to lipid membranes (MLV)): 63 nm; red shift of absorption maximum relative to ElectroFluor630 ([2]; in aqueous buffer (PBS)): 63 nm; red shift of absorption maximum relative to ElectroFluor630 ([2]; in ethanol (EtOH)): 77 nm; fluorescence enhancement upon binding to lipid membranes ([2]; lipid membranes vs unbound dye): over 100 fold; fluorescence quantum efficiency despite bathochromic shift ([2]; membrane bound, vs ElectroFluor630): not diminished; Stokes shift between excitation and emission maxima ([2]; membrane-bound dye): 125 nm
5 | CCCCCN(CCCCC)c1ccc2c(c1)OCC(/C=C/c1c(F)c[n+](CCC[N+](CC)(CC)CC)c3ccccc13)=C2.[Br-].[Br-] [2b] | 720 | 10 | 700 | 611 | 628 | 0.10 | 736 | –
6 | CCCCN(CCCC)c1ccc2cc(/C=C/c3cc[n+](CCCS(=O)(=O)[O-])cc3)ccc2c1 [Di-4-ANEPPS, reference compound] | 550 | 10 | 496 | 464 | 447 | 0.30 | 617 | –
7 | CCCCN(CCCC)c1ccc2cc(/C=C/c3c(F)c[n+](CCC[N+](CC)(CC)CC)c4ccccc34)ccc2c1.[Br-].[Br-] [ElectroFluor630, Di-4-ANEQ (F) PTEA, reference compound] | 645 | 12 | 618 | 547 | 565 | 0.10 | 686 | phototoxicity [4]: minimal phototoxicity; optimal dual excitation, lower wavelength [5]: 470 nm; optimal dual excitation, upper wavelength [5]: 630 nm
8 | CCCCCN(CCCCC)c1ccc2cc(/C=C/c3c(F)c[n+](CCC[N+](CC)(CC)CC)c4ccccc34)ccc2c1.[Br-].[Br-] [ElectroFluor630p, Di-5-ANEQ(F)PTEA] | – | – | – | – | – | – | – | ΔF/F/100 mV ([6]; blue-edge excitation): +5.2%; ΔR/R/100 mV (ratio blue/red excitation) ([6]; ratio measurement): 29.3%; ΔF/F/100 mV ([6]; red-edge excitation): −19.4%
9 | CCCCN(CCCC)c1ccc2cc(/C=C/C=C/c3cc[n+](CCC[N+](C)(C)C)c4ccccc34)ccc2c1.[Br-].[Br-] [di-4-ANBDQPQ] | – | – | – | – | – | – | – | optimal excitation [5]: 630 nm
